# From PubChem BioAssay (NCI)
#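 Assay format: 96-well plates, 48-hour exposure. GI50 is the concentration that inhibits growth by half. TGI marks complete inhibition of growth.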
# Columns and labels:
# Assay in all cases: inhibition of tumour cell growth, NCI panel, 48 h
# 786-0 renal = system: 786-0 renal
# A498 renal = system: A498 renal
# A549 NSCLC = system: A549 NSCLC
# ACHN renal = system: ACHN renal
# CAKI-1 renal = system: CAKI-1 renal
# CCRF-CEM leukemia = system: CCRF-CEM leukemia
# COLO 205 colon = system: COLO 205 colon
# DU-145 prostate = system: DU-145 prostate
# EKVX NSCLC = system: EKVX NSCLC
# HCC-2998 colon = system: HCC-2998 colon
# HCT-116 colon = system: HCT-116 colon
# HCT-15 colon = system: HCT-15 colon
# HL-60(TB) leukemia = system: HL-60(TB) leukemia
# HOP-62 NSCLC = system: HOP-62 NSCLC
# HOP-92 NSCLC = system: HOP-92 NSCLC
# HS 578T breast = system: HS 578T breast
# HT29 colon = system: HT29 colon
# IGROV1 ovarian = system: IGROV1 ovarian
# K-562 leukemia = system: K-562 leukemia
# KM12 colon = system: KM12 colon
# LOX IMVI melanoma = system: LOX IMVI melanoma
# M14 melanoma = system: M14 melanoma
# MALME-3M melanoma = system: MALME-3M melanoma
# MCF7 breast = system: MCF7 breast
# MDA-MB-231 breast = system: MDA-MB-231 breast
# MDA-MB-435 = system: MDA-MB-435
# MDA-N = system: MDA-N
# MOLT-4 leukemia = system: MOLT-4 leukemia
# NCI-H226 lung = system: NCI-H226 lung
# NCI-H23 lung = system: NCI-H23 lung
# NCI-H460 lung = system: NCI-H460 lung
# NCI-H522 lung = system: NCI-H522 lung
# NCI/ADR-RES ovarian = system: NCI/ADR-RES ovarian
# OVCAR-3 ovarian = system: OVCAR-3 ovarian
# OVCAR-4 ovarian = system: OVCAR-4 ovarian
# OVCAR-5 ovarian = system: OVCAR-5 ovarian
# OVCAR-8 ovarian = system: OVCAR-8 ovarian
# PC-3 prostate = system: PC-3 prostate
# RPMI-8226 leukemia = system: RPMI-8226 leukemia
# RXF 393 renal = system: RXF 393 renal
# SF-268 CNS = system: SF-268 CNS
# SF-295 CNS = system: SF-295 CNS
# SF-539 CNS = system: SF-539 CNS
# SK-MEL-2 melanoma = system: SK-MEL-2 melanoma
# SK-MEL-28 melanoma = system: SK-MEL-28 melanoma
# SK-MEL-5 melanoma = system: SK-MEL-5 melanoma
# SK-OV-3 ovarian = system: SK-OV-3 ovarian
# SN12C renal = system: SN12C renal
# SNB-19 CNS = system: SNB-19 CNS
# SW-620 colon = system: SW-620 colon
# T-47D breast = system: T-47D breast
# TK-10 renal = system: TK-10 renal
# U251 CNS = system: U251 CNS
# UACC-257 melanoma = system: UACC-257 melanoma
# UACC-62 melanoma = system: UACC-62 melanoma
# UO-31 renal = system: UO-31 renal
# BT-549 breast = system: BT-549 breast
# SNB-75 CNS = system: SNB-75 CNS
# SR leukemia = system: SR leukemia
smiles,measurement,setting,value
CN1N=C(c2ccncc2)OC1c1ccc(Cl)c(Cl)c1 (configuration not stated),TGI,786-0 renal,> 100 µM
same,TGI,A498 renal,> 100 µM
same,TGI,A549 NSCLC,> 100 µM
same,TGI,ACHN renal,> 100 µM
same,TGI,CAKI-1 renal,> 100 µM
same,TGI,CCRF-CEM leukemia,> 100 µM
same,TGI,COLO 205 colon,> 100 µM
same,TGI,DU-145 prostate,> 100 µM
same,TGI,EKVX NSCLC,> 100 µM
same,TGI,HCC-2998 colon,> 100 µM
same,TGI,HCT-116 colon,> 100 µM
same,TGI,HCT-15 colon,> 100 µM
same,TGI,HL-60(TB) leukemia,> 100 µM
same,TGI,HOP-62 NSCLC,> 100 µM
same,TGI,HOP-92 NSCLC,> 100 µM
same,TGI,HS 578T breast,> 100 µM
same,TGI,HT29 colon,> 100 µM
same,TGI,IGROV1 ovarian,> 100 µM
same,TGI,K-562 leukemia,> 100 µM
same,TGI,KM12 colon,> 100 µM
same,TGI,LOX IMVI melanoma,> 100 µM
same,TGI,M14 melanoma,> 100 µM
same,TGI,MALME-3M melanoma,> 100 µM
same,TGI,MCF7 breast,> 100 µM
same,TGI,MDA-MB-231 breast,> 100 µM
same,TGI,MDA-MB-435,> 100 µM
same,TGI,MDA-N,> 100 µM
same,TGI,MOLT-4 leukemia,> 100 µM
same,TGI,NCI-H226 lung,> 100 µM
same,TGI,NCI-H23 lung,> 100 µM
same,TGI,NCI-H460 lung,> 100 µM
same,TGI,NCI-H522 lung,> 100 µM
same,TGI,NCI/ADR-RES ovarian,> 100 µM
same,TGI,OVCAR-3 ovarian,> 100 µM
same,TGI,OVCAR-4 ovarian,> 100 µM
same,TGI,OVCAR-5 ovarian,> 100 µM
same,TGI,OVCAR-8 ovarian,> 100 µM
same,TGI,PC-3 prostate,> 100 µM
same,TGI,RPMI-8226 leukemia,> 100 µM
same,TGI,RXF 393 renal,> 100 µM
same,TGI,SF-268 CNS,> 100 µM
same,TGI,SF-295 CNS,> 100 µM
same,TGI,SF-539 CNS,> 100 µM
same,TGI,SK-MEL-2 melanoma,> 100 µM
same,TGI,SK-MEL-28 melanoma,> 100 µM
same,TGI,SK-MEL-5 melanoma,> 100 µM
same,TGI,SK-OV-3 ovarian,> 100 µM
same,TGI,SN12C renal,> 100 µM
same,TGI,SNB-19 CNS,> 100 µM
same,TGI,SW-620 colon,> 100 µM
same,TGI,T-47D breast,> 100 µM
same,TGI,TK-10 renal,> 100 µM
same,TGI,U251 CNS,> 100 µM
same,TGI,UACC-257 melanoma,> 100 µM
same,TGI,UACC-62 melanoma,> 100 µM
same,TGI,UO-31 renal,> 100 µM
O=C(Oc1ccc([N+](=O)[O-])cc1)N1CCC(C(O)(c2ccc3c(c2)OCO3)c2ccc3c(c2)OCO3)CC1,GI50,786-0 renal,> 100 µM
same,TGI,786-0 renal,> 100 µM
same,GI50,A498 renal,> 100 µM
same,TGI,A498 renal,> 100 µM
same,GI50,A549 NSCLC,> 100 µM
same,TGI,A549 NSCLC,> 100 µM
same,GI50,ACHN renal,> 100 µM
same,TGI,ACHN renal,> 100 µM
same,GI50,BT-549 breast,> 100 µM
same,TGI,BT-549 breast,> 100 µM
same,GI50,CAKI-1 renal,> 100 µM
same,TGI,CAKI-1 renal,> 100 µM
same,GI50,CCRF-CEM leukemia,> 100 µM
same,TGI,CCRF-CEM leukemia,> 100 µM
same,GI50,COLO 205 colon,> 100 µM
same,TGI,COLO 205 colon,> 100 µM
same,GI50,DU-145 prostate,> 100 µM
same,TGI,DU-145 prostate,> 100 µM
same,GI50,EKVX NSCLC,> 100 µM
same,TGI,EKVX NSCLC,> 100 µM
same,GI50,HCC-2998 colon,> 100 µM
same,TGI,HCC-2998 colon,> 100 µM
same,GI50,HCT-116 colon,> 100 µM
same,TGI,HCT-116 colon,> 100 µM
same,GI50,HCT-15 colon,> 100 µM
same,TGI,HCT-15 colon,> 100 µM
same,GI50,HL-60(TB) leukemia,> 100 µM
same,TGI,HL-60(TB) leukemia,> 100 µM
same,GI50,HOP-62 NSCLC,> 100 µM
same,TGI,HOP-62 NSCLC,> 100 µM
same,GI50,HOP-92 NSCLC,> 52.3 µM
same,TGI,HOP-92 NSCLC,> 100 µM
same,GI50,HS 578T breast,> 80.4 µM
same,TGI,HS 578T breast,> 100 µM
same,GI50,HT29 colon,> 100 µM
same,TGI,HT29 colon,> 100 µM
same,GI50,IGROV1 ovarian,> 100 µM
same,TGI,IGROV1 ovarian,> 100 µM
same,GI50,K-562 leukemia,> 100 µM
same,TGI,K-562 leukemia,> 100 µM
same,GI50,KM12 colon,> 100 µM
same,TGI,KM12 colon,> 100 µM
same,GI50,LOX IMVI melanoma,> 100 µM
same,TGI,LOX IMVI melanoma,> 100 µM
same,GI50,M14 melanoma,> 100 µM
same,TGI,M14 melanoma,> 100 µM
same,GI50,MALME-3M melanoma,> 100 µM
same,TGI,MALME-3M melanoma,> 100 µM
same,GI50,MCF7 breast,> 100 µM
same,TGI,MCF7 breast,> 100 µM
same,GI50,MDA-MB-231 breast,> 100 µM
same,TGI,MDA-MB-231 breast,> 100 µM
same,GI50,MDA-MB-435,> 100 µM
same,TGI,MDA-MB-435,> 100 µM
same,GI50,MOLT-4 leukemia,> 100 µM
same,TGI,MOLT-4 leukemia,> 100 µM
same,GI50,NCI-H226 lung,> 100 µM
same,TGI,NCI-H226 lung,> 100 µM
same,GI50,NCI-H23 lung,> 100 µM
same,TGI,NCI-H23 lung,> 100 µM
same,GI50,NCI-H460 lung,> 100 µM
same,TGI,NCI-H460 lung,> 100 µM
same,GI50,NCI-H522 lung,> 100 µM
same,TGI,NCI-H522 lung,> 100 µM
same,GI50,NCI/ADR-RES ovarian,> 100 µM
same,TGI,NCI/ADR-RES ovarian,> 100 µM
same,GI50,OVCAR-3 ovarian,> 100 µM
same,TGI,OVCAR-3 ovarian,> 100 µM
same,GI50,OVCAR-4 ovarian,> 100 µM
same,TGI,OVCAR-4 ovarian,> 100 µM
same,GI50,OVCAR-5 ovarian,> 100 µM
same,TGI,OVCAR-5 ovarian,> 100 µM
same,GI50,OVCAR-8 ovarian,> 100 µM
same,TGI,OVCAR-8 ovarian,> 100 µM
same,GI50,PC-3 prostate,> 100 µM
same,TGI,PC-3 prostate,> 100 µM
same,GI50,RPMI-8226 leukemia,> 100 µM
same,TGI,RPMI-8226 leukemia,> 100 µM
same,GI50,RXF 393 renal,> 100 µM
same,TGI,RXF 393 renal,> 100 µM
same,GI50,SF-268 CNS,> 100 µM
same,TGI,SF-268 CNS,> 100 µM
same,GI50,SF-295 CNS,> 100 µM
same,TGI,SF-295 CNS,> 100 µM
same,GI50,SF-539 CNS,> 100 µM
same,TGI,SF-539 CNS,> 100 µM
same,GI50,SK-MEL-2 melanoma,> 100 µM
same,TGI,SK-MEL-2 melanoma,> 100 µM
same,GI50,SK-MEL-28 melanoma,> 100 µM
same,TGI,SK-MEL-28 melanoma,> 100 µM
same,GI50,SK-MEL-5 melanoma,> 100 µM
same,TGI,SK-MEL-5 melanoma,> 100 µM
same,GI50,SK-OV-3 ovarian,> 100 µM
same,TGI,SK-OV-3 ovarian,> 100 µM
same,GI50,SN12C renal,> 100 µM
same,TGI,SN12C renal,> 100 µM
same,GI50,SNB-19 CNS,> 100 µM
same,TGI,SNB-19 CNS,> 100 µM
same,GI50,SNB-75 CNS,> 100 µM
same,TGI,SNB-75 CNS,> 100 µM
same,GI50,SR leukemia,> 100 µM
same,TGI,SR leukemia,> 100 µM
same,GI50,SW-620 colon,> 100 µM
same,TGI,SW-620 colon,> 100 µM
same,GI50,T-47D breast,> 100 µM
same,TGI,T-47D breast,> 100 µM
same,GI50,TK-10 renal,> 100 µM
same,TGI,TK-10 renal,> 100 µM
same,GI50,U251 CNS,> 100 µM
same,TGI,U251 CNS,> 100 µM
same,GI50,UACC-257 melanoma,> 100 µM
same,TGI,UACC-257 melanoma,> 100 µM
same,GI50,UACC-62 melanoma,> 100 µM
same,TGI,UACC-62 melanoma,> 100 µM
same,GI50,UO-31 renal,> 100 µM
same,TGI,UO-31 renal,> 100 µM
